From patent publication US7572770B2, “Use of an interleukin 1 receptor antagonist and/or pyrrolidinedithiocarbamate for the treatment or prophylaxis of type 2 diabetes” (University of Zurich, priority 2002, dated 2009)

Legend:
Format in all cases: cell-based
human islets = assay: Insulin release and content of human islets
Method: (§1) Islet isolation and culture. Islets were isolated from pancreases of eleven organ donors at the Department of Surgery, University of Geneva Medical Center, as described (32-34). The islet purity was >95%, as judged by dithizone staining (if this degree of purity was not primarily achieved by routine isolation, islets were handpicked). […] For long-term in vitro studies, the islets were cultured on extracellular matrix-coated plates derived from bovine corneal endothelial cells (Novamed Ltd., Jerusalem, Israel), allowing the cells to attach to the dishes and spread, preserving their functional integrity (7;35). Islets were cultured in CMRL 1066 medium containing 100 U/ml penicillin, 100 μg/ml streptomycin and 10% fetal calf serum (Gibco, Gaithersburg, Md.), hereinafter referred to as culture medium. Two days after plating, when most islets were attached and began to flatten, the medium was changed to culture medium containing 5.5, 11.1 or 33.3 mM glucose. In some experiments, islets were additionally cultured with 2 ng/ml recombinant human IL-1β, 1000 U/ml recombinant human IFNγ (ReproTech EC Ltd, London, UK), 500 ng/ml IL-1β receptor antagonist (IL-1Ra) (R&D Systems Inc., Minneapolis, Minn.), 1 ng/ml membrane bound Fas-ligand (FasL) (36) (upstate biotechnology, Lake Placid, N.Y.) or with 100 μM pyrrolidinedithiocarbamate (PDTC; Sigma; 2 h per 2 d of culture).
Insulin release and content. To determine acute insulin release in response to glucose stimulation, islets were washed in RPMI 1640 medium with 10% FCS and containing 3.3 mM glucose and pre-incubated for 1 h in the same medium. The medium was then discarded and replaced with fresh medium containing 3.3 mM glucose for 1 h for basal secretion, followed by an additional 1 h incubation in medium containing 16.7 mM glucose. Incubates were collected and frozen for insulin assays. […] Insulin was determined by a human insulin RIA kit (CIS bio international, Gif-Sur-Yvette, France).

human islets β-cells = assay: Detection of IL-1β expressing β-cells in cultured human islets (double immunostaining); conditions: 33.3 mM glucose, 4 days, co-incubation with IL-1Ra
Method: as §1, with “culture). […]” for “culture).”

NF-κB = NF-κB activation in human islets; conditions: 33.3 mM glucose with IL-1Ra 500 ng/ml, 44 hours
Method: Western blot analysis. Islets were cultured in a culture medium in non-adherent plastic dishes. One day after isolation, the medium was changed and groups of 200 islets were incubated for 44 hours in culture medium containing 5.5 or 33.3 mM glucose without or with 2 ng/ml IL-1β or 500 ng/ml IL-1Ra. At the end of the incubations, islets were washed in PBS, suspended in 50 μl sample buffer containing 125 mM Tris-HCl, pH 6.8, 4% SDS, 10% glycerol, 0.3% bromphenol blue, 1.8% β-mercaptoethanol and boiled for 5 min. Equivalent amounts of each treatment group were run on 15% SDS polyacrylamide gels. […] Intensity of bands was analyzed using Multianalyst™ (Bio Rad, Laboratories inc., Hercules, Calif.). […] Activation of NF-κB complex was quantified with an ELISA-based Kit, using attached oligonucleotides binding to a NF-κB consensus site and detected by an anti-p65 or p50 subunit antibody, according to the manufacturer's instructions (Trans-AM™ NFκB, Active Motif). […] Sections were incubated with mouse anti-NF-κB (p65) (1:50 dilution) or rabbit anti-IκB (1:50 dilution, C-21, Santa Cruz) antibodies, detected by donkey anti-mouse or anti-rabbit Cy3 conjugated antibodies and double stained for insulin as described above.

**Q.** What does the source list for “Interleukin 1 receptor antagonist [IL-1Ra]”?
**A.** acute glucose-stimulated insulin release, co-incubation (human islets; 33.3 mM glucose or IL-1β for 4 days plus IL-1Ra or PDTC): partially restored such glucose stimulation; insulin content of islets (human islets; high glucose with IL-1Ra, 4 days): remained unaffected; IL-1β positive β-cells (double immunostaining) (human islets β-cells): displayed similar results; glucose-induced increase in NF-κB activity (NF-κB): prevented
